The values below come from ChEMBL document CHEMBL4376847, “Aryl Trehalose Derivatives as Vaccine Adjuvants for Mycobacterium tuberculosis” (J Med Chem, 2020).

The source made the active and inactive calls. No cut-off for these calls is given here.

In experiment [1] the target is T1, C-type lectin domain family 4 member E (Homo sapiens) (UniProt Q9ULY5).
T1 sequence (whole entry): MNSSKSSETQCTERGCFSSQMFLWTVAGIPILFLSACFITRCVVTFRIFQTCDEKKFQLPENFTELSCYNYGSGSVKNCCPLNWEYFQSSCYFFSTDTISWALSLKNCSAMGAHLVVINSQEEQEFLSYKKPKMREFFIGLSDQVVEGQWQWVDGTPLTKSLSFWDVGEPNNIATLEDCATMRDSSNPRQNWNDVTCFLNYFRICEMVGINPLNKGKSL
Description: Agonist activity at Mincle in human PBMC assessed as TNF-alpha secretion at 0.1 to 100 uM incubated for 18 to 24 hrs by ELISA.

The target in experiment [2] is T2, C-type lectin domain family 4 member E (Mus musculus) (UniProt Q9R0Q8).
T2 sequence (whole entry): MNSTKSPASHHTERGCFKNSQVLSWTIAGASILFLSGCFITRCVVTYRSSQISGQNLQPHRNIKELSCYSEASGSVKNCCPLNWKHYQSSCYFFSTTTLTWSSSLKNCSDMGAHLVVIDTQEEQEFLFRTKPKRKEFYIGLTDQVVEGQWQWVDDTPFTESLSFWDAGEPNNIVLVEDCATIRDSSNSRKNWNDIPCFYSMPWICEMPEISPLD
Description: Agonist activity at Mincle in mouse RAW264.7 cells assessed as IL-6 production at 0.1 to 100 uM incubated for 18 to 24 hrs by ELISA. The class given is cell-based. In general terms: An ELISA detects its analyte on a solid surface through an enzyme-linked reagent.

For experiment [3], the target named is T2, C-type lectin domain family 4 member E (Mus musculus). Description: Agonist activity at Mincle in mouse RAW264.7 cells assessed as TNF-alpha secretion at 0.1 to 100 uM incubated for 18 to 24 hrs by ELISA. The class given is cell-based.
In experiment [4] the target is T1, C-type lectin domain family 4 member E (Homo sapiens). Description: Agonist activity at Mincle in human PBMC assessed as increase in TNF-alpha level at 0.1 to 100 uM incubated for 18 to 24 hrs by luminex multiplex assay.
For experiment [5] the target is unchanged. Description: Agonist activity at Mincle in human PBMC assessed as increase in IL-6 secretion at 0.1 to 100 uM incubated for 18 to 24 hrs by luminex multiplex assay.
The target is the same in experiment [6]. Description: Agonist activity at Mincle in human PBMC assessed as increase in TNF-alpha production at 1 to 1000 uM incubated for 18 to 24 hrs by ELISA.
Experiment [7] has the same target. Description: Agonist activity at Mincle in human PBMC assessed as increase in IL-1beta secretion at 0.1 to 100 uM incubated for 18 to 24 hrs by luminex multiplex assay.
Experiment [8] shares this target. Description: Agonist activity at Mincle in human PBMC assessed as increase in IL-23 at 0.1 to 100 uM incubated for 18 to 24 hrs by luminex multiplex assay.
Experiment [9] has as its system Mus musculus. Description: Immuno-adjuvant activity in M72-immunized BALB/c mouse assessed as potentiation of antibody response to M72 by measuring serum anti-M72 IgG2a level at 10 nmol, im administered immediately and 14 and measured after 14 days by ELISA. It counts as functional, organism-based.
Experiment [10] concerns Mus musculus. Description: Immuno-adjuvant activity in M72-immunized BALB/c mouse assessed as potentiation of antibody response to M72 by measuring serum anti-M72 IgG1 level at 10 nmol, im administered immediately and 14 and measured after 14 days by ELISA. It counts as functional, organism-based.
In experiment [11] the test system is Mus musculus. Description: Immuno-adjuvant activity in M72-immunized BALB/c mouse assessed as potentiation of antibody response to M72 by measuring IFNgamma at 2 to 50 nmol, im administered immediately and 14 and measured after 5 days by immuno staining based flow cytometry. It counts as functional, organism-based. (In general: A flow cytometer gives signals particle by particle.)

The subject of experiment [12] is Mus musculus. Description: Immuno-adjuvant activity in M72-immunized BALB/c mouse assessed as potentiation of antibody response to M72 by measuring serum anti-M72 IgG level at 10 nmol, im administered immediately and day 14 and measured after 14 days by ELISA. It counts as functional, organism-based.
Experiment [13] concerns the target T1, C-type lectin domain family 4 member E (Homo sapiens). Description: Agonist activity at human Mincle receptor expressed in human HEK cells assessed as NF-kappaB activation incubated for 24 hrs by SEAP reporter gene assay. It counts as cell-based. On the technique in general: Reporter assays use an easily measured gene product as a stand-in for the process of interest.

Experiment [14] deals with T2, C-type lectin domain family 4 member E (Mus musculus). Description: Agonist activity at mouse Mincle receptor expressed in human HEK cells assessed as NF-kappaB activation incubated for 24 hrs by SEAP reporter gene assay. The class given is cell-based.
Experiment [15] has as its system Mus musculus. Description: Immuno-adjuvant activity in M72-immunized BALB/c mouse assessed as potentiation of antibody response to M72 by measuring CD4+ IL-17A T-cells at 2 to 50 nmol, im administered immediately and 14 and measured after 5 days by immuno staining based flow cytometry. It counts as functional, organism-based.
The subject of experiment [16] is Mus musculus. Description: Immuno-adjuvant activity in M72-immunized BALB/c mouse assessed as potentiation of antibody response to M72 by measuring IL-5 at 2 to 50 nmol, im administered immediately and 14 and measured after 5 days by immuno staining based flow cytometry. It counts as functional, organism-based.
Experiment [17] deals with Mus musculus. Description: Immuno-adjuvant activity in B42-immunized BALB/c mouse assessed as potentiation of antibody response to B42 by measuring CD4+ IL-17A T-cells at 2 to 50 nmol, im administered immediately and 14 and measured after 5 days by immuno staining based flow cytometry. The class given is functional, organism-based.

With `CC(C)(C)c1cc(C(=O)OC[C@H]2O[C@H](O[C@H]3O[C@H](COC(=O)c4cc(C(C)(C)C)cc(C(C)(C)C)c4)[C@@H](O)[C@H](O)[C@H]3O)[C@H](O)[C@@H](O)[C@@H]2O)cc(C(C)(C)C)c1`, the result in [1] and in experiment [3] was Active. The result in experiment [2] was inactive.

In the case of `COc1ccc(/C=C/C(=O)OC[C@H]2O[C@H](O[C@H]3O[C@H](COC(=O)/C=C/c4ccc(OC)c(OC)c4)[C@@H](O)[C@H](O)[C@H]3O)[C@H](O)[C@@H](O)[C@@H]2O)cc1OC`, the result in experiment [4], in [5], in experiment [6], in experiment [7] and in [8] was Active.

Consider `CCOc1cc(OCC)cc(C(=O)OC[C@H]2O[C@H](O[C@H]3O[C@H](COC(=O)c4cc(OCC)cc(OCC)c4)[C@@H](O)[C@H](O)[C@H]3O)[C@H](O)[C@@H](O)[C@@H]2O)c1`, for which the outcome in experiment [4], in experiment [5], in experiment [6], in experiment [7] and in [8] was Active.

Turning to `COc1cc(C)c(C(=O)OC[C@H]2O[C@H](O[C@H]3O[C@H](COC(=O)c4c(C)cc(OC)cc4OC)[C@@H](O)[C@H](O)[C@H]3O)[C@H](O)[C@@H](O)[C@@H]2O)c(OC)c1`, the outcome in experiment [4], in experiment [5], in [6], in experiment [7] and in experiment [8] was Active.

`CC(C)(C)c1cc(C(=O)OC[C@H]2O[C@H](O[C@H]3O[C@H](COC(=O)c4cc(C(C)(C)C)c(O)c(C(C)(C)C)c4)[C@@H](O)[C@H](O)[C@H]3O)[C@H](O)[C@@H](O)[C@@H]2O)cc(C(C)(C)C)c1O`: the outcome in experiment [1] and in experiment [3] was Active. Also, in experiment [2], the result was inactive.

Regarding `CC(C)(C)c1cc(C(=O)OC[C@H]2O[C@H](O[C@H]3O[C@H](COC(=O)c4cc(C(C)(C)C)cc(C(C)(C)C)c4O)[C@@H](O)[C@H](O)[C@H]3O)[C@H](O)[C@@H](O)[C@@H]2O)c(O)c(C(C)(C)C)c1`, the outcome (in experiment [4]; in experiment [5]; in the experiment with Mus musculus [9]; in experiment [6]; in experiment [7]; in the experiment with Mus musculus [15]) was Active. For the same molecule, the outcome in experiment [8] was Active. The outcome with Mus musculus [10], in the experiment with Mus musculus [11], in the experiment on Mus musculus [12] and with Mus musculus [16] was inactive. The Activity result in [13] and in [14] was “Dose-dependent effect” in each case.

As for `CCCCCCCCCCCCCCCCCCCCCC(=O)OC[C@H]1O[C@H](O[C@H]2O[C@H](COC(=O)CCCCCCCCCCCCCCCCCCCCC)[C@@H](O)[C@H](O)[C@H]2O)[C@H](O)[C@@H](O)[C@@H]1O`, the outcome in the experiment with Mus musculus [9], in the experiment with Mus musculus [17] and in the experiment on Mus musculus [15] was Active. Also, the outcome (in the experiment on Mus musculus [11]; in experiment [13]; in experiment [14]; in the experiment with Mus musculus [16]) was inactive.

As to `COc1cc(/C=C/C(=O)OC[C@H]2O[C@H](O[C@H]3O[C@H](COC(=O)/C=C/c4cc(OC)c(OC)c(OC)c4)[C@@H](O)[C@H](O)[C@H]3O)[C@H](O)[C@@H](O)[C@@H]2O)cc(OC)c1OC`, the result in experiment [4], in experiment [5], in experiment [6], in [7] and in experiment [8] was Active.

On to `CCCCCCCC(CCCCCCC)C(=O)OC[C@H]1O[C@H](O[C@H]2O[C@H](COC(=O)C(CCCCCCC)CCCCCCC)[C@@H](O)[C@H](O)[C@H]2O)[C@H](O)[C@@H](O)[C@@H]1O`, for which the outcome in the experiment with Mus musculus [9], in the experiment with Mus musculus [10] and in the experiment with Mus musculus [12] was Active.

Regarding `CC(C)(C)c1cc(C(C)(C)C)c(O)c(C(=O)OC[C@H]2O[C@H](O[C@H]3O[C@H](COC(=O)c4c(O)c(C(C)(C)C)cc(C(C)(C)C)c4O)[C@@H](O)[C@H](O)[C@H]3O)[C@H](O)[C@@H](O)[C@@H]2O)c1O`, the result in [1] and in experiment [3] was Active. Moreover, the result in experiment [2] was inactive.

Take `CC(C)(C)c1ccc(O)c(C(=O)OC[C@H]2O[C@H](O[C@H]3O[C@H](COC(=O)c4cc(C(C)(C)C)ccc4O)[C@@H](O)[C@H](O)[C@H]3O)[C@H](O)[C@@H](O)[C@@H]2O)c1`: the result in [1] and in [3] was Active. Besides, the outcome in experiment [2] was inactive.

With `CCCCCCCCCCCCCCCCCCCCCCC(C(=O)OC[C@H]1O[C@H](O[C@H]2O[C@H](COC(=O)C(CCCCCCCCCCCCCCCCCCCCCC)C(O)CCCCCCCCCCCCCCCCCC3CC3CCCCCCCCCCCCCCC3CC3CCCCCCCCCCCCCCCCCC)[C@@H](O)[C@H](O)[C@H]2O)[C@H](O)[C@@H](O)[C@@H]1O)C(O)CCCCCCCCCCCCCCCCCC1CC1CCCCCCCCCCCCCCC1CC1CCCCCCCCCCCCCCCCCC` (some centres not stated), the result in experiment [13] and in [14] was inactive.
